Measurements taken from patent publication US10791741B2, “Plant growth regulator” (JIANGSU HUIFENG BIO TECHNOLOGY CO., LTD., priority 2016, dated 2020).

Tested on: melon
Assay: Comprehensive test on growth regulation for melon by thidiazuron combined with amino-oligosaccharin
Type: in vivo
Conditions: 42 mg/kg
Procedure: 1. Comprehensive Test on Growth Regulation for Melon by Thidiazuron Combined with Amino-Oligosaccharin
The thidiazuron and amino-oligosaccharin were diluted with acetone to give a series of concentrations, and the crops were sprayed in the flowering phase to determine the effect of each concentration on crop growth in the field, so as to make a comprehensive evaluation with respect to the carpopodium diameter, fruit setting rate, disease inhibition rate, quality, and yield of the crops. Carpopodium diameter increase rate=(Plant height in water control group−Plant height in treatment group)/Plant height in water control group*100% Fruit setting increase rate=(Stem diameter in treatment group−Stem diameter in water control group)/Stem diameter in water control group*100% Disease reduction rate=(Disease index in water control group−Disease index in treatment group)/Disease index in water control group*100% Single fruit weight increase rate=(weight in treatment group−quality in water control group)/weight in water control group*100% Central sugar increase rate=(Central sugar content in treatment group−Central sugar content in water control group)/Central sugar content in water control group*100%

[1] = flowering phase, vs water control
[2] = sprayed in flowering phase, 1 application

For `O=C(Nc1ccccc1)Nc1cnns1` [Thidiazuron, thidiazuron], the “Anthracnose index reduction rate (disease reduction rate)” value [1] was 17.6%, the “Carpopodium diameter increase rate” value [1] was 4.0% and the “Central sugar increase rate” value [1] was 7.4%. The “Fruit setting increase rate” value [1] was 8.6%, the “Single fruit weight increase rate” value [1] was 8.9% and the Anthracnose index [2] was 17.76. For the same compound, the Carpopodium diameter [2] was 6.65 mm, the Central sugar content [2] was 9.36% and the Fruit setting rate [2] was 27.0%. The Single fruit weight [2] was 1.03 kg.
